According to US6723753B2, “Substituted n-benzyl-n-phenyl aminoalcohol compounds useful for inhibiting cholesteryl ester transfer protein activity” (Pharmacia Corporation, priority 2002, dated 2004):
pIC50: −log10 of the molar value.

How the values were obtained:
[1] = target: T1, CETP (Homo sapiens, UniProt P11597); experiment: Assay of CETP Inhibition using Purified Components (Reconstituted Buffer Assay); assay type: biochemical; parameters: made in house; host or cells: CHO cells (serum-free conditioned medium)
T1 sequence (P11597 18-493): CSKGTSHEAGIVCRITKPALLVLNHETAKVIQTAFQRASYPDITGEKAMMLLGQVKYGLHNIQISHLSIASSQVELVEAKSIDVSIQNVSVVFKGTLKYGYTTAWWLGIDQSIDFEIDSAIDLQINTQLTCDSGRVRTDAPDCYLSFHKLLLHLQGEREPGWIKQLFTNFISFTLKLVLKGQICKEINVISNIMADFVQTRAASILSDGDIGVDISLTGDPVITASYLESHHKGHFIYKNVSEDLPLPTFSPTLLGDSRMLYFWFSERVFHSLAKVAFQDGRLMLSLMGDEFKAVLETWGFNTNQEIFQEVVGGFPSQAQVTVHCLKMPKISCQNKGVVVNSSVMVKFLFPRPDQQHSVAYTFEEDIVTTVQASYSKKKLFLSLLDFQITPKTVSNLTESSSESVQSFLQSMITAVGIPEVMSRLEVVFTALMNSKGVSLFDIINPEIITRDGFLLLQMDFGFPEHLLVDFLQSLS
Method in brief: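 Purified human recombinant CETP from transfected CHO cells was incubated with [^3H]CE-labeled HDL donor and LDL acceptor in Tris pH 7.4/NaCl/EDTA/1% BSA buffer for 2 h at 37 °C. LDL was then precipitated with dextran sulfate/MgCl2, filtered, and counted by liquid scintillation to give IC50 for CE transfer.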

[2] = target: T1, CETP; experiment: Assay of CETP Inhibition in Human Plasma; assay type: biochemical; parameters: Blood was obtained from healthy volunteers, recruited from the personnel of Monsanto Company; from tissue; host or cells: human EDTA plasma pool from healthy volunteers; settings: Inhibition of CETP activity in human plasma assay; transfer of [3H]CE from HDL to VLDL and LDL; read-out: IC50
Description: Assay of CETP Inhibition in Human Plasma
Blood was obtained from healthy volunteers, recruited from the personnel of Monsanto Company, Saint Louis, Mo. Blood was collected in tubes containing EDTA (EDTA plasma pool). The EDTA human plasma pool, previously stored at −20° C., was thawed at room temperature and centrifuged for 5 minutes to remove any particulate matter. […] Equal volumes (396 μL) of the plasma containing the [^3H]CE-HDL were added by pipette into micro tubes (Titertube®, Bio-Rad laboratories, Hercules, Calif.). Inhibitor compounds, dissolved as 20-50 mM stock solutions in DMSO, were serially diluted in DMSO (or an alternative solvent in some cases, such as dimethylformamide or ethanol). Four μL of each of the serial dilutions of inhibitor compounds or DMSO alone were then added to each of the tubes containing plasma (396 μL). After mixing, triplicate aliquots (100 μL) from each plasma tube were then transferred to wells of 96-well round-bottomed polystyrene microtiter plates (Corning, Corning, N.Y.). Plates were sealed with plastic film and incubated at 37° C. for 4 hours. “Test” samples contained plasma with dilutions of inhibitor compounds. “Control” samples contained plasma with DMSO diluted to the same concentration as the test samples, but without inhibitor. “Blank” samples were prepared as “control” samples, but were left in the micro tubes at 4° C. for the 4 hour incubation and were then added to the microtiter wells at the end of the incubation period. VDL and LDL were precipitated by the addition of 10 μL of precipitating reagent (1% (w/v) dextran sulfate (Dextralip50)/0.5 M magnesium chloride, pH 7.4) to all wells. The wells were mixed on a plate mixer and then incubated at ambient temperature for 10 min. The plates were then centrifuged at 1000× g for 30 min at 10° C. The supernatants (50 μL) from each well were then transferred to Picoplate™ 96 plate wells (Packard, Meriden, Conn.) containing Microscint™-40 (Packard, Meriden, Conn.). The plates were heat-sealed (TopSeal™-P, Packard, Meriden, Conn.) according to the manufacturer's directions and mixed for 30 min. Radioactivity was measured on a microplate scintillation counter (TopCount, Packard, Meriden, Conn.). The maximum percentage transfer in the control wells (% transfer) was determined using the following equation: [formula]
The percentage of transfer relative to the control (% control) was determined in the wells containing inhibitor compounds was determined as follows: [formula]
IC50 values were then calculated from plots of % control versus concentration of inhibitor compound.

[3] = Inhibition of CETP activity in reconstituted buffer assay, transfer of [3H]CE from HDL to LDL, read-out: IC50

pIC50 [1, 3] | pIC50 [2] | Structure (SMILES) | pIC50 [1]
5.72 | 4.12 | OC(CN(Cc1cccc(OC(F)(F)C(F)F)c1)c1cccc(Nc2cccc(Cl)c2)c1)C(F)(F)F (stereo not shown) [Example 304] | 
5.52 | < 4.00 | OC(CN(Cc1cccc(C(F)(F)F)c1)c1cc(C(F)(F)F)ccc1C(F)(F)F)C(F)(F)F (stereo not shown) [Example 691] | 
6.16 | 4.42 | COc1ccc(-c2cccc(N(Cc3cccc(OC(F)(F)C(F)F)c3)CC(O)C(F)(F)F)c2)cc1 (stereo not shown) [Example 558] | 
5.40 | 3.96 | OC(CN(Cc1cccc(OC(F)(F)F)c1)c1ccc2c(c1)Cc1ccccc1-2)C(F)(F)F (stereo not shown) [Example 201] | 
6.68 | 5.20 | OC(CN(Cc1cccc(OC(F)(F)C(F)F)c1)c1cccc(OCc2cccc(C(F)(F)F)c2F)c1)C(F)(F)F (stereo not shown) [Example 400] | 
5.89 | 4.20 | OC(COc1cccc(CN(CC(O)C(F)(F)F)c2cccc(Oc3ccc(F)cc3)c2)c1)C(F)(F)F (stereo not shown) [Example 655B, 3-[3-(4-fluorophenoxy)phenyl[[3-(2-hydroxy-3,3,3-trifluoro-n-propoxy)phenyl]methyl]amino]-1,1,1-trifluoro-2-propanol] | 
5.82 | 4.26 | OC(CN(Cc1cccc(OC(F)(F)F)c1)c1ccc2c(c1)Cc1ccccc1-2)C(F)(F)F (stereo not shown) [compound 699] | 
5.68 | < 4.00 | OC(CN(Cc1cccc(OC(F)(F)C(F)F)c1)c1cccc(N2CCCCC2)c1)C(F)(F)F (stereo not shown) [compound 315] | 
6.09 | 5.30 | OC(CN(Cc1cccc(OC(F)(F)C(F)F)c1)c1cccc(OCc2cccc(Cl)c2F)c1)C(F)(F)F (stereo not shown) [Example 393] | 
6.11 | 4.62 | O=[N+]([O-])c1c(F)cccc1Oc1cccc(N(Cc2cccc(OC(F)(F)C(F)F)c2)CC(O)C(F)(F)F)c1 (stereo not shown) [Example 440] | 
6.30 | 4.66 | OC(CN(Cc1cccc(OC(F)(F)C(F)F)c1)c1cccc(Oc2cncc(Cl)c2)c1)C(F)(F)F (stereo not shown) [Example 287] | 
6.00 | 4.96 | OC(CN(Cc1cccc(OC(F)(F)C(F)F)c1)c1cccc(-c2ccc(F)c(F)c2F)c1)C(F)(F)F (stereo not shown) [Example 560] | 
6.15 | < 4.30 | OC(CN(Cc1cccc(OC(F)(F)C(F)F)c1)c1cccc(OCc2ccc(OC(F)F)cc2)c1)C(F)(F)F (stereo not shown) [Example 389] | 
6.74 | 5.38 | OC(CN(Cc1cccc(OC(F)(F)C(F)F)c1)c1cccc(OCc2cccc(Br)c2)c1)C(F)(F)F (stereo not shown) [Example 401] | 

The next lines start with the compound.

Structure (SMILES) | pIC50 [1, 3] | pIC50 [2] | pIC50 [1]
OC(CN(Cc1cccc(OC(F)(F)F)c1)c1cccc(Oc2ccc(F)cc2)c1)C(F)(F)F (stereo not shown) [Example 166] | 6.11 | 4.52 | 
CCCCOc1ccc(Oc2cccc(N(Cc3cccc(OC(F)(F)C(F)F)c3)CC(O)C(F)(F)F)c2)cc1 (stereo not shown) [Example 251] | 6.31 | 4.59 | 
OC(CN(Cc1cccc(OC(F)(F)F)c1)c1cccc(Br)c1)C(F)(F)F (stereo not shown) [Example 36] | 5.40 | < 3.70 | 
OC(CN(Cc1cccc(OC(F)(F)F)c1)c1cccc(OCc2ccccc2)c1)C(F)(F)F (stereo not shown) [Example 126] | 5.40 | 4.35 | 
OC(CN(Cc1cccc(OC(F)(F)C(F)F)c1)c1cc(F)ccc1F)C(F)(F)F (stereo not shown) [Example 70] | 5.70 | 4.19 | 
CC(=O)OC(CN(Cc1cccc(C(F)(F)F)c1)c1cccc(F)c1)C(F)(F)F (stereo not shown) [Example 664, 2,2,2-trifluoro-1-[[(3-fluorophenyl)[3-(trifluoromethyl)phenyl]-methyl]amino]methyl]ethyl Acetate] |  | < 3.70 | 4.15
OC(CN(Cc1cccc(C(F)(F)F)c1)c1ccccc1)C(F)(F)F (stereo not shown) [Example 35] | 4.80 | < 3.70 | 
OC(CN(Cc1cccc(OC(F)(F)C(F)F)c1)c1cccc(F)c1)C(F)(F)F (stereo not shown) [Example 43] | 5.40 | 3.96 | 
OC(CN(Cc1cccc(OC(F)(F)C(F)F)c1)c1ccc(-c2ccccc2)cc1)C(F)(F)F (stereo not shown) [Example 87] | 5.40 | 4.22 | 
